The source of these data is patent US20240116985A1, “STAPLED PEPTIDES AND METHODS THEREOF” (priority 2020, published 2024).

Where two headings read alike, the source gives them in different places. Bounds are passed on as bounds.

Experiment [1] has as its target T1, beta-catenin/TCF4 engagement (Homo sapiens, UniProt P35222).
T1 construct: expressed in transfected cells; host or cells: HEK293
T1 sequence (P35222 1-781): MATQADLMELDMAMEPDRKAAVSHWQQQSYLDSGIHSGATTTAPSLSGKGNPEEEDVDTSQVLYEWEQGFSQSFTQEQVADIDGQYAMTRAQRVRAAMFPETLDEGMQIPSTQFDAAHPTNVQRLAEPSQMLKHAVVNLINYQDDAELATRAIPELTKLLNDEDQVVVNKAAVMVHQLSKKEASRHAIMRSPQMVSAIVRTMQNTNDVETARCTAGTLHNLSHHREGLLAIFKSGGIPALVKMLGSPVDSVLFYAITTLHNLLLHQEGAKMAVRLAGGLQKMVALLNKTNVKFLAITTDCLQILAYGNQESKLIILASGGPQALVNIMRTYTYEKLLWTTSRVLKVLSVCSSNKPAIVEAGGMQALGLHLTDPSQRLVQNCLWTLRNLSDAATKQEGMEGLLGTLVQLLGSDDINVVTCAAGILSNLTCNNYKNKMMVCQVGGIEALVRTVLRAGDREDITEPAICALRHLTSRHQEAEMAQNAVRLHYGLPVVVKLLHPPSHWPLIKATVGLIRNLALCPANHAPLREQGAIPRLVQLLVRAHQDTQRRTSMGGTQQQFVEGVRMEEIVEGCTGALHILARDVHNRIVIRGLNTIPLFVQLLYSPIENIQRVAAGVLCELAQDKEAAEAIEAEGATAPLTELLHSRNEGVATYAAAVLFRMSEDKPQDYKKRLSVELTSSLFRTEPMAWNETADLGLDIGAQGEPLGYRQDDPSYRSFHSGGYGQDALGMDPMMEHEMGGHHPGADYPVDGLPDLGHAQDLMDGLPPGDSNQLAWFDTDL
Description: Nano-BRET target engagement assay (B-cat-Halo & TCF4-Luc in HEK293 cells). In kind it is cell-based. (In BRET a luciferase serves as donor, and the signal depends on an acceptor being close.)

The test system of experiment [2] is TCF/LEF luciferase Reporter in DLD1 cells. The experiment can be described thus: TCF reporter assay (DLD1 TCF/LEF luciferase reporter, Bright-Glo). In kind it is cell-based. The note with it: read-out: DLD1 4% Abs IC50. A digest of the protocol:
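Readouts: Bright-Glo luciferase for reporter signal and CellTiter-Glo for cell viability, with absolute IC50 derived. The reporter clone came from lentiviral TCF/LEF-luciferase transduction of DLD1 cells, seeded 5000 cells/well in RPMI with 4% FBS and exposed overnight to serially diluted compounds.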

For another experiment, the system named is COLO320DM cells. In kind it is cell-based. The following applies: COLO320DM cells, read-out: COLO320DM Proliferation Abs IC50. How it is done: COLO320DM proliferation assay IC50: In some embodiments, inhibition of cell proliferation by provided technologies were assessed using cell lines related to or from certain conditions, disorders or diseases. In some embodiments, cell proliferation was assessed in COLO320DM cells. In some embodiments, assessment was performed using the following procedure: On Day 1, cultured COLO320DM cells in a T75 flask were trypsinized in 3 mL of 0.25% trypsin/EDTA for 5 min and quenched with 10 mL RPMI-1640+4% HI FBS assay media. The cells were spun down at 1200 rpm for 5 min, the cell pellet collected and re-suspended at 5000 cells/mL in assay media. Using a Combi liquid handler, cells were dispensed (50 uL, 250 cells/well) into three 384 well plates. Plates were incubated at 37° C., […]. On day 2, compounds were added. A liquid handling system was used to prepare the compound dilution and dispense compound into assay plates. The compounds were serially diluted 1/2 in 90% DMSO to create a 7 point dose curve. From compound plate, 100 nL of compound were dispensed directly into wells of the assay plates to create a dose curve starting at 20 uM and ending at 313 nM. Assay plates were incubated at 37° C., […]. On day 6, assay plates were removed from the incubator and allowed to sit at room temperature for 30 min. Using a liquid handler, 20 uL of CellTiter Glo reagent was added to each well. The assay plates were shaken for 2 min and allowed to sit on the bench for 10-15 minutes. The assay plates were read using the CellTiter Glo protocol on a GloMax microplate reader, and the data analyzed using GraphPad Prism.

Experiment [3] deals with T2, full-length beta-Catenin (Uniprot ID P35222) (Homo sapiens, UniProt P35222).
T2 construct: 10 nM full-length beta-Catenin (Uniprot ID P35222)
T2 sequence (P35222 1-781): T1 sequence (P35222 1-781)
Description: Fluorescence polarization IC50 (beta-catenin / 5FAM-TCF4 10-53 competition). The following applies: fluorescence polarization; read-out: beta-Catenin FP IC50. Format: binding. On the technique in general: Fluorescence polarisation rises when a labelled molecule tumbles more slowly, as on binding a larger partner.

Where [4] appears, read: absolute IC50, read-out: NanoBRET Abs IC50.

As for `CC(=O)N1CCC[C@]12CC=CCCCC1(CCCC=CCCCOC(=O)N3CC[C@@](C(=O)N[C@@H](Cc4ccsc4)C(=O)N[C@@H](Cc4csc5ccccc45)C(=O)N[C@@H](CC(N)=O)C(=O)N[C@@H](CC(C)C)C(=O)N[C@@H](CC(C)C)C(=O)N[C@@H](CC(C)C)C(=O)N[C@@H](CC(C)C)C(=O)N[C@@H](CC(C)C)C(N)=O)(C3)NC(=O)[C@H](CC(C)C)NC(=O)[C@H](Cc3ccccc3)NC(=O)[C@H](C)NC(=O)[C@H](C)NC(=O)[C@H](Cc3cccc(C(=O)O)c3)NC(=O)[C@H](CC(=O)O)NC1=O)NC(=O)[C@H](CC(C)(C)C)NC(=O)[C@H](CC(=O)O)NC2=O` (single isomer, unassigned) [I-2280, Ac-PL3-Asp-Npg-B5-Asp-3COOHF-Ala-Ala-Phe-Leu-PyrS2-3Thi-BztA-Asn-Leu-Leu-Leu-Leu-Leu-NH2], the IC50 was greater than 20 µM in experiment [1] (NanoBRET Abs IC50 (uM), absolute IC50); greater than 20 µM in experiment [2] (DLD1 reporter, 4%, absolute IC50); greater than 20 µM in the experiment on COLO320DM cells (absolute IC50).
For `CC(=O)N1CCC[C@]12CC=CCCCC1(CCCC=CCCCOC(=O)N3CC[C@@](C(=O)N[C@@H](Cc4ccccc4C(F)(F)F)C(=O)N[C@@H](Cc4csc5ccccc45)C(=O)N[C@@H](C)C(N)=O)(C3)NC(=O)[C@H](CC(C)C)NC(=O)[C@H](Cc3ccccc3)NC(=O)[C@H](C)NC(=O)[C@H](CCC(N)=O)NC(=O)[C@H](Cc3cccc(C(=O)O)c3)NC(=O)[C@H](CC(=O)O)NC1=O)NC(=O)[C@H](CC(C)(C)C)NC(=O)[C@H](CC(=O)O)NC2=O` (stereo partly drawn) [I-2057, Ac-PL3-Asp-Npg-B5-Asp-3COOHF-Gln-Ala-Phe-Leu-PyrS2-2F3MeF-BztA-Ala-NH2], the IC50 is 0.017 µM in experiment [3], 4 µM in experiment [2] (DLD1 4%) and greater than 20 µM with COLO320DM cells.
In the case of `CC(=O)N1CCC[C@]12CC=CCCCC1(CCCC=CCCCOC(=O)N3CC[C@@](C(=O)N[C@@H](Cc4ccccc4C(F)(F)F)C(=O)N[C@@H](Cc4csc5ccccc45)C(=O)N[C@@H](CCC(=O)N(C)C)C(N)=O)(C3)NC(=O)[C@H](CC(C)C)NC(=O)[C@H](Cc3ccccc3)NC(=O)[C@H](C)NC(=O)[C@H](C)NC(=O)[C@H](Cc3cccc(C(=O)O)c3)NC(=O)[C@H](CC(=O)O)NC1=O)NC(=O)[C@H](CC(C)(C)C)NC(=O)[C@H](CC(=O)O)NC2=O` (stereo partly drawn) [I-2532, Ac-PL3-Asp-Npg-B5-Asp-3COOHF-Ala-Ala-Phe-Leu-PyrS2-2F3MeF-BztA-Me2Gln-NH2], the IC50 was 0.014 µM in experiment [3], 4.5 µM in experiment [1] (setting [4]) and greater than 20 µM in the experiment on COLO320DM cells (absolute IC50).
`CCCC[C@@H]1NC(=O)[C@H](Cc2ccccc2)NC(=O)[C@H](C)NC(=O)[C@H](C)NC(=O)[C@H](Cc2cccc(C(=O)O)c2)NC(=O)[C@H](CC(=O)O)NC(=O)C2(CCCC=CCCCOC(=O)N3CC[C@@](C(=O)N[C@@H](Cc4ccccc4C(F)(F)F)C(=O)N[C@@H](Cc4csc5ccccc45)C(=O)N[C@@H](CCC(=O)N(C)C)C(N)=O)(C3)NC1=O)CCCC=CC[C@]1(CCCN1C(C)=O)C(=O)N[C@@H](CC(=O)O)C(=O)N[C@@H](CC(C)(C)C)C(=O)N2` (stereo partly drawn) [I-2533, Ac-PL3-Asp-Npg-B5-Asp-3COOHF-Ala-Ala-Phe-nLeu-PyrS2-2F3MeF-BztA-Me2Gln-NH2]: the IC50 in experiment [3] is 0.028 µM; in experiment [1] (setting [4]), 6.2 µM; with COLO320DM cells (absolute IC50), greater than 20 µM.
Taken in the same sequence, the figures for `CC(=O)N1CCC[C@]12CC=CCCCC1(CCCC=CCCCOC(=O)N3CC[C@@](C(=O)N[C@@H](Cc4ccccc4C(F)(F)F)C(=O)N[C@@H](Cc4csc5ccccc45)C(=O)N[C@@H](CCC(=O)N4CCOCC4)C(N)=O)(C3)NC(=O)[C@H](CC(C)C)NC(=O)[C@H](Cc3ccccc3)NC(=O)[C@H](C)NC(=O)[C@H](C)NC(=O)[C@H](Cc3cccc(C(=O)O)c3)NC(=O)[C@H](CC(=O)O)NC1=O)NC(=O)[C@H](CC(C)(C)C)NC(=O)[C@H](CC(=O)O)NC2=O` (stereo partly drawn) [I-2541, Ac-PL3-Asp-Npg-B5-Asp-3COOHF-Ala-Ala-Phe-Leu-PyrS2-2F3MeF-BztA-MorphGln-NH2] were 0.021 µM, 4.7 µM and greater than 20 µM.
For `CCCC[C@@H]1NC(=O)[C@H](Cc2ccccc2)NC(=O)[C@H](C)NC(=O)[C@H](C)NC(=O)[C@H](Cc2cccc(C(=O)O)c2)NC(=O)[C@H](CC(=O)O)NC(=O)C2(CCCC=CCCCOC(=O)N3CC[C@@](C(=O)N[C@@H](Cc4ccccc4C(F)(F)F)C(=O)N[C@@H](Cc4csc5ccccc45)C(=O)N[C@@H](CCC(=O)N4CCOCC4)C(N)=O)(C3)NC1=O)CCCC=CC[C@]1(CCCN1C(C)=O)C(=O)N[C@@H](CC(=O)O)C(=O)N[C@@H](CC(C)(C)C)C(=O)N2` (stereo partly drawn) [I-2542, Ac-PL3-Asp-Npg-B5-Asp-3COOHF-Ala-Ala-Phe-nLeu-PyrS2-2F3MeF-BztA-MorphGln-NH2], in that order: 0.023 µM, 4 µM and greater than 20 µM.
With `CC(=O)N1CCC[C@]12CC=CCCCC1(CCCC=CCCCOC(=O)N3CC[C@@](C(=O)N[C@@H](Cc4ccsc4)C(=O)N[C@@H](Cc4csc5ccccc45)C(=O)N[C@H](CO)C(=O)N[C@@H](C)C(N)=O)(C3)NC(=O)[C@@H](CO)NC(=O)[C@H](Cc3ccccc3)NC(=O)[C@H](C)NC(=O)C(C)(C)NC(=O)[C@H](Cc3cccc(C(=O)O)c3)NC(=O)[C@H](CC(=O)O)NC1=O)NC(=O)[C@H](CC(C)(C)C)NC(=O)[C@H](CC(=O)O)NC2=O` (stereo partly drawn) [I-2576, Ac-PL3-Asp-Npg-B5-Asp-3COOHF-Aib-Ala-Phe-dSer-PyrS2-3Thi-BztA-dSer-Ala-NH2], the IC50 in experiment [3] was 0.006 µM; in experiment [1] (read-out: NanoBRET Abs IC50), 16.1 µM; in the experiment on COLO320DM cells, greater than 20 µM.
On to `CC(=O)N1CCC[C@]12CC=CCCCC1(CCCC=CCCCOC(=O)N3CC[C@@](C(=O)N[C@@H](Cc4ccsc4)C(=O)N[C@@H](Cc4csc5ccccc45)C(=O)N[C@@H](CO)C(=O)N[C@@H](C)C(N)=O)(C3)NC(=O)[C@H](CO)NC(=O)[C@H](Cc3ccccc3)NC(=O)[C@H](C)NC(=O)C(C)(C)NC(=O)[C@H](Cc3cccc(C(=O)O)c3)NC(=O)[C@H](CC(=O)O)NC1=O)NC(=O)[C@H](CC(C)(C)C)NC(=O)[C@H](CC(=O)O)NC2=O` (stereo partly drawn) [I-2577, Ac-PL3-Asp-Npg-B5-Asp-3COOHF-Aib-Ala-Phe-Ser-PyrS2-3Thi-BztA-Ser-Ala-NH2], for which the IC50 was 0.007 µM in experiment [3], 2.7 µM in experiment [1] (read-out: NanoBRET Abs IC50) and 9.5 µM in the experiment with COLO320DM cells.
As for `CC(=O)NCCCC[C@@H]1NC(=O)[C@H](Cc2ccccc2)NC(=O)[C@H](C)NC(=O)C(C)(C)NC(=O)[C@H](Cc2cccc(C(=O)O)c2)NC(=O)[C@H](CC(=O)O)NC(=O)C2(CCCC=CCCCOC(=O)N3CC[C@@](C(=O)N[C@@H](Cc4ccccc4C(F)(F)F)C(=O)N[C@@H](Cc4csc5ccccc45)C(=O)N[C@@H](C)C(=O)N[C@@H](C)C(N)=O)(C3)NC1=O)CCCC=CC[C@]1(CCCN1C(C)=O)C(=O)N[C@@H](CC(=O)O)C(=O)N[C@@H](CC(C)(C)C)C(=O)N2` (stereo partly drawn) [I-2579, Ac-PL3-Asp-Npg-B5-Asp-3COOHF-Aib-Ala-Phe-AcLys-PyrS2-2F3MeF-BztA-Ala-Ala-NH2], the IC50 in experiment [3] was 0.041 µM; in experiment [1] (read-out: NanoBRET Abs IC50), 4.7 µM; in the experiment on COLO320DM cells, 15.3 µM.
